Experimental data reported in patent publication US20200115357A1, “LIVER X RECEPTORS (LXR) MODULATORS” (Phenex-FXR GmbH, priority 2017, published 2020).
pEC50: −log10 of the molar value.

Tests used:
LXRα full length (FL) = biological target: T1, LXRα full length (FL) (Homo sapiens, UniProt Q13133); assay: LXR Gal4 reporter transient transfection assay (M2H), Gal4α FL; format: cell-based; details: HEK293 cells; for pEC50: read-out: M2H Gal4α FL activity range (EC50)
T1 construct: the full length (FL) proteins of LXRα (amino acids 1-447); NP005684; expressed in transfected cells; host or cells: HEK293
T1 sequence (Q13133 1-447): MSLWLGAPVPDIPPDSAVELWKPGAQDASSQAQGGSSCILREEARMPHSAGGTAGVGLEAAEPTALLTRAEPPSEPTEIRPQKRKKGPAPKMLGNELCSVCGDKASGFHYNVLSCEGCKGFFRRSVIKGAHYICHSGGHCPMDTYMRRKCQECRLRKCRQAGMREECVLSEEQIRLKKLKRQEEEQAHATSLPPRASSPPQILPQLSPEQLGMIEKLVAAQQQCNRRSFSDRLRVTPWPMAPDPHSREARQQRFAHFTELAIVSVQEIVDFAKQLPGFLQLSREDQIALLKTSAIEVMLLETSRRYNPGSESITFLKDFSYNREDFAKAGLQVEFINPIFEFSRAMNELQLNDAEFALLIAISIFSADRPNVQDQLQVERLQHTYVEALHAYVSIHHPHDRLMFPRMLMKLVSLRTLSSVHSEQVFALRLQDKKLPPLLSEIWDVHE
Description: (§1) The tested compounds were usually dissolved, tested and stored as 20 mM stock solutions in DMSO. Since sulfonyl acetic acid derivatives tend to decarboxylate under these conditions, these stock solutions were prepared, tested and stored as 20 mM DMSO stock solutions containing 100 mM trifluoroacetic acid (5 equivalents). Sulfonyl acetic acid derivatives are shelf stable as solid at rt for long time as reported by Griesbrecht et al. (Synlett 2010:374) or Faucher et al. (J. Med. Chem. 2004; 47:18).
(§2) LXR Gal4 Reporter Transient Transfection Assays
(§3) LXRα and LXRβ activity status was determined via detection of interaction with coactivator and corepressor proteins in mammalian two-hybrid experiments (M2H). For this, via transient transfection the full length (FL) proteins of LXRα (amino acids 1-447; NP005684; SEQ ID NO:7) or LXRβ-(amino acids 1-461; NP009052; SEQ ID NO:8) or the ligand-binding domains (LBD) of LXRα (amino acids 155-447 SEQ ID NO:3) or LXRβ (amino acids 156-461; SEQ ID NO:4) were expressed from pCMV-AD (Stratagene) as fusions to the transcriptional activation domain of NFkB. As cofactors, domains of either the steroid receptor coactivator 1 (SRC1; amino acids 552-887; SEQ ID NO:5) or of the corepressor NCoR (amino acids 1903-2312 SEQ ID NO:6) were expressed as fusions to the DNA binding domain of the yeast transcription factor GAL4 (from pCMV-BD; Stratagene). Interaction was monitored via activation of a coexpressed Firefly Luciferase Reporter gene under control of a promoter containing repetitive GAL4 response elements (vector pFRLuc; Stratagene). Transfection efficiency was controlled via cotransfection of constitutively active pRL-CMV Renilla reniformis luciferase reporter (Promega). HEK293 cells were grown in minimum essential medium (MEM) with 2 mM L-glutamine and Earle's balanced salt solution supplemented with 8.3% fetal bovine serum, 0.1 mM non-essential amino acids, 1 mM sodium pyruvate, at 37° C. in 5% CO2. 3.5×10^4 cells/well were plated in 96-well cell culture plates in growth medium supplemented with 8.3% fetal bovine serum for 16-20 h to ˜90% confluency. For transfection, medium was taken off and LXR and cofactor expressing plasmids as well as the reporter plasmids are added in 30 μL OPTIMEM/well including polyethylene-imine (PEI) as vehicle. Typical amounts of plasmids transfected/well: pCMV-AD-LXR (5 ng), pCMV-BD-cofactor (5 ng), pFR-Luc (100 ng), pRL-CMV (0.5 ng). Compound stocks were prepared in DMSO, prediluted in MEM to a total volume of 120 μL, and added 4 h after addition of the transfection mixture (final vehicle concentration not exceeding 0.2%). Cells were incubated for additional 16 h, lysed for 10 min in 1× Passive Lysis Buffer (Promega) and Firefly and Renilla luciferase activities were measured sequentially in the same cell extract using buffers containing D-luciferine and coelenterazine, respectively. Measurements of luminescence were done in a BMG-Iuminometer.

[1] = biological target: T2, GST-LXRβ ligand-binding domain (Homo sapiens, UniProt P55055, DUP175-175); assay: TR-FRETβ activity assay (LXRβ-LBD / NCoA3 coactivator peptide, prestimulated with 24(S)-25-epoxycholesterol); format: biochemical; parameters: key to behavior in FRET assay: ag=agonist; ia=inverse agonist; details: for pEC50: read-out: FRETβ activity range (EC50); for behavior in FRET assay: agonist or inverse agonist
T2 construct: amino acids 156-461; NP009052; made in house; host or cells: E. coli
T2 sequence (P55055 with tags, fused parts or gaps DUP175-175): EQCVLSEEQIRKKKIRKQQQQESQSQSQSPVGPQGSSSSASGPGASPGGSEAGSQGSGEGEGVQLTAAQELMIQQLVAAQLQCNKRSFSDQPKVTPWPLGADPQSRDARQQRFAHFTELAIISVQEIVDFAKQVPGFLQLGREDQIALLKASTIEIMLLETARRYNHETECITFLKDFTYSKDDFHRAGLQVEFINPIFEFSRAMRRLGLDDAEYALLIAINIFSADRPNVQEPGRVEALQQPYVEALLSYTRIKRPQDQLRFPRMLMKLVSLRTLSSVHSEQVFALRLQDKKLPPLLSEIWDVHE
Description: The tested compounds were usually dissolved, tested and stored as 20 mM stock solutions in DMSO. […] Sulfonyl acetic acid derivatives are shelf stable as solid at rt for long time as reported by Griesbrecht et al. (Synlett 2010:374) or Faucher et al. (J. Med. Chem. 2004; 47:18). TR-FRETβ Activity Assay Recombinant GST-LXRβ ligand-binding domain (LBD; amino acids 156-461; NP009052; SEQ ID NO:2) was expressed in E. coli and purified via gluthatione-sepharose affinity chromatography. N-terminally biotinylated NCoA3 coactivator peptide (SEQ ID NO:1) was chemically synthesized (Eurogentec). […] Finally, a detection mix was added containing anti GST-Tb cryptate (CisBio; 610SAXLB) and Streptavidin-XL665 (CisBio; 610SAXLB) as fluorescent donor and acceptor, respectively, as well as the coactivator peptide and LXRβ-LBD protein (SEQ ID NO:2). The reaction was mixed thoroughly, equilibrated for 1 h at 4° C. and vicinity of LXRβ and coactivator peptide was detected by measurement of fluorescence in a VictorX4 multiplate reader (PerkinElmer Life Science) using 340 nm as excitation and 615 and 665 nm as emission wavelengths. Assays were performed in triplicates. Final Assay Concentrations of Components: 240 mM KCl, 1 μg/μL BSA, 0.002% Triton-X-100, […] anti GST-Tb cryptate, 2.5 ng/μL Streptavidin-XL665, coactivator peptide (400 nM), LXRβ protein ([…], i.e. 76 nM)

LXRβ full length (FL) = biological target: T3, LXRβ full length (FL) (Homo sapiens, UniProt P55055, DUP175-175); assay: LXR Gal4 reporter transient transfection assay (M2H), Gal4β FL; format: cell-based; details: HEK293 cells; read-out: M2H Gal4β FL activity range (EC50)
T3 construct: the full length (FL) proteins of LXRα (amino acids 1-447); NP005684; NP009052; expressed in transfected cells; host or cells: HEK293
T3 sequence (P55055 with tags, fused parts or gaps DUP175-175): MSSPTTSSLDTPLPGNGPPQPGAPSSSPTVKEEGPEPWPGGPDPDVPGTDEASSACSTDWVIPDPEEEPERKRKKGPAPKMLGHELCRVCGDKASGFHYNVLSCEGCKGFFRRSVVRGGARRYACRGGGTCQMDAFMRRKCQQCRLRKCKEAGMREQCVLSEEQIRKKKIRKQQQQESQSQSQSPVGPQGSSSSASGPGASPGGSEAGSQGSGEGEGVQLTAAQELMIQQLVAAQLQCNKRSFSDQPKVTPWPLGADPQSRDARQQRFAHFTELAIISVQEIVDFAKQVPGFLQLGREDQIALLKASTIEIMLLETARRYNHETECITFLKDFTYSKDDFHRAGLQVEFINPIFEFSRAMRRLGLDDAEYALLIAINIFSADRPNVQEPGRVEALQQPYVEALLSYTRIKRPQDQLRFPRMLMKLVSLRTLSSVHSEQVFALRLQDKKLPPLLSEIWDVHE
Description: as §1, §2, §3

[2] = 1 μM 24(S)-25-epoxycholesterol as prestimulating agonist

| Structure (SMILES) | pEC50 (LXRα full length (FL)) | FRETβ activity range (EC50) [1, 2] | pEC50 (LXRβ full length (FL)) | pEC50 [1, 2] | behavior in FRET assay [1] | M2H Gal4α FL activity range (EC50) (LXRα full length (FL)) |
| --- | --- | --- | --- | --- | --- | --- |
| Cc1ccc2ccccc2c1S(=O)(=O)N(Cc1ccc(C(F)(F)F)o1)C1COc2cc(-c3cccc(C(C)(C)C(=O)O)c3)ccc21 (centres unmarked) [10/14] | > 7.00 | – | > 7.00 | 6.00 to 7.00 | ia | – |
| Cc1ccc2ccccc2c1S(=O)(=O)N(Cc1ccc(-c2cccc(C(C)(C)C(=O)O)c2)cc1)Cc1cc2ccccc2o1 [10/17] | 6.00 to 7.00 | – | > 7.00 | 5.00 to 6.00 | ia | – |
| Cc1cc(C)c(S(=O)(=O)N(Cc2ccc(-c3cccc(S(=O)(=O)CC(=O)O)c3)cc2)Cc2cncc(C(F)(F)F)c2)c(C)c1 [11/9] | 5.00 to 6.00 | – | 5.00 to 6.00 | 5.00 to 6.00 | ia | – |
| Cc1cc(C)c(S(=O)(=O)N(Cc2ccc(-c3cccc(S(=O)(=O)CC(=O)O)c3)cc2)Cc2c(F)cccc2Cl)c(C)c1 [11/6] | 6.00 to 7.00 | – | > 7.00 | 6.00 to 7.00 | ag | – |
| Cc1cc(C)c(S(=O)(=O)N(Cc2ccc(-c3cccc(S(=O)(=O)CC(=O)O)c3)cc2)Cc2ccc(C)o2)c(C)c1 [5/5] | 5.00 to 6.00 | – | 6.00 to 7.00 | < 5.00 | ia | – |
| Cc1cc(F)cc(C)c1S(=O)(=O)N(Cc1ccc(-c2cccc(S(=O)(=O)CC(=O)O)c2)cc1)Cc1ccc(C(F)(F)F)o1 [10/2] | 5.00 to 6.00 | – | 6.00 to 7.00 | 5.00 to 6.00 | ia | – |
| Cc1ccc2ccccc2c1S(=O)(=O)N(Cc1ccc(-c2cccc(S(=O)(=O)CC(=O)O)c2)cc1)Cc1cc(C(F)(F)F)co1 [10/16] | 5.00 to 6.00 | – | 6.00 to 7.00 | < 5.00 | ia | – |
| Cc1cc(C)c(S(=O)(=O)N(Cc2ccc(-c3cccc(S(=O)(=O)CC(=O)O)c3)cc2)Cc2ccc(F)c(C)c2)c(C)c1 [11/5] | 5.00 to 6.00 | – | 6.00 to 7.00 | < 5.00 | ia | – |
| Cc1cc(C)c(S(=O)(=O)N(Cc2ccc(-c3cccc(C(C)(C)C(=O)O)c3)cc2)c2ccc(C(F)(F)F)o2)c(C)c1 [10/7] | 6.00 to 7.00 | – | > 7.00 | 6.00 to 7.00 | ag | – |
| Cc1cc(C)c(S(=O)(=O)N(Cc2ccc(-c3cccc(S(=O)(=O)CC(=O)O)c3)cc2)Cc2ccccc2C(F)(F)F)c(C)c1 [11/12] | 6.00 to 7.00 | – | > 7.00 | 6.00 to 7.00 | ag | – |

The next lines start with the values.

| pEC50 (LXRα full length (FL)) | FRETβ activity range (EC50) [1, 2] | pEC50 (LXRβ full length (FL)) | pEC50 [1, 2] | behavior in FRET assay [1] | M2H Gal4α FL activity range (EC50) (LXRα full length (FL)) | Structure (SMILES) |
| --- | --- | --- | --- | --- | --- | --- |
| 5.00 to 6.00 | inactive | 6.00 to 7.00 | – | – | – | Cc1cc(C)c(S(=O)(=O)N(Cc2ccc(-c3cccc(S(=O)(=O)CC(=O)O)c3)cc2)Cc2cccc(Cl)c2)c(C)c1 [11/16] |
| 5.00 to 6.00 | – | 5.00 to 6.00 | 5.00 to 6.00 | – | – | Cc1cc(C)c(S(=O)(=O)N(Cc2ccc(-c3cccc(S(=O)(=O)CC(=O)O)c3)cc2)C(C)(C)c2ccc(C(F)(F)F)o2)c(C)c1 [Example 17, 2-((4′-(((2,4,6-Trimethyl-N-(2-(5-(trifluoromethyl)furan-2-yl)propan-2-yl)phenyl)sulfon-amido)methyl)-[1,1′-biphenyl]-3-yl)sulfonyl)acetic acid] |
| 6.00 to 7.00 | – | 6.00 to 7.00 | 6.00 to 7.00 | ia | – | Cc1ccc2ccccc2c1S(=O)(=O)N(Cc1ccc(-c2cccc(S(=O)(=O)CC(=O)O)c2)cc1)Cc1ccc(C(F)(F)F)o1 [Example 10, 2-((4′-(((2-Methyl-N-((5-(trifluoromethyl)furan-2-yl)methyl)naphthalene)-1-sulfonamido)methyl)[1,1′-biphenyl]-3-yl)sulfonyl)acetic acid] |
| 5.00 to 6.00 | – | 6.00 to 7.00 | 5.00 to 6.00 | ia | – | Cc1cccc(C)c1S(=O)(=O)N(Cc1ccc(-c2cccc(S(=O)(=O)CC(=O)O)c2)cc1)Cc1ccc(C(F)(F)F)o1 [14/2] |
| – | – | 5.00 to 6.00 | 5.00 to 6.00 | ag | inactive | Cc1cc(F)c(S(=O)(=O)N(Cc2ccc(-c3cccc(S(=O)(=O)CC(=O)O)c3)cc2)Cc2ccc(C(F)(F)F)o2)c(F)c1 [Example 14/1] |
| 5.00 to 6.00 | – | 5.00 to 6.00 | 5.00 to 6.00 | ia | – | Cc1cc(C)c(S(=O)(=O)N(Cc2ccc(-c3cccc(S(=O)(=O)CC(=O)O)c3)cc2)Cc2cccc(C(F)(F)F)c2)c(C)c1 [Example 11, 2-((4′-(((2,4,6-Trimethyl-N-(3-(trifluoromethyl)benzyl)phenyl)sulfonamido)methyl)-[1,1′-biphenyl]-3-yl)sulfonyl)acetic acid] |
